Measurements taken from US6455550B1, “N-alkanoylphenylalanine derivatives” (Hoffmann-La Roche Inc., priority 1997, dated 2002).
pIC50: −log10 of the molar value.

Target: T1, VLA-4 (α4β1 integrin) binding to immobilized VCAM-1 (Homo sapiens, UniProt P05556+P13612)
T1 construct: followed by 10 μl of Ramos cell-derived VLA-4; endogenous in cells; host or cells: Ramos cells (VLA-4 preparation derived from the cells)
Assay: VLA-4/VCAM-1 Screening Assay (solid-phase, dual antibody ELISA)
Settings: not given
Method: VLA-4 antagonist activity, defined as ability to compete for binding to immobilized VCAM-1 was quantitated using a solid-phase, dual antibody ELISA. VLA-4 (α4β1 integrin) bound to VCAM-1 was detected by a complex of anti-integrin β1 antibody: HRP-conjugated anti-mouse IgG: chromogenic substrate (K-Blue). Initially, this entailed coating 96 well plates (Nunc Maxisorp) with recombinant human VCAM-1 (0.4 μg in 100 μl PBS), sealing each plate and then allowing the plates to stand at 4° C for Å18 hr. […] On the day of assay, all plates were washed twice with VCAM Assay Buffer (200 μl/well of 50 mM Tris-HCl, 100 mM NaCl, 1 mM MnCl2, 0.05% Tween 20; pH 7.4). Test compounds were dissolved in 100% DMSO and then diluted 1:20 in VCAM Assay Buffer supplemented with 1 mg/mL BSA (i.e., final DMSO=5%). […] 100 μl per well of each dilution was added to the VCAM-coated plates, followed by 10 μl of Ramos cell-derived VLA-4. These plates were sequentially mixed on a platform shaker for 1 min, incubated for 2 hr at 37° C. and then washed four times with 200 μl/well VCAM Assay Buffer. 100 μl of mouse anti-human integrin β1 antibody was added to each well (0.6 μg/mL in VCAM Assay Buffer+1 mg/mL BSA) and allowed to incubate for 1 hr at 37° C. At the conclusion of this incubation period, all plates were washed four times with VCAM Assay Buffer (200 μl/well). A corresponding second antibody, HRP-conjugated goat anti-mouse IgG (100 μl per well @1:800 dilution in VCAM Assay Buffer+1 mg/mL BSA), was then added to each well, followed by a 1 hr incubation at room temperature and concluded by three washes (200 μl/well) with VCAM Assay Buffer. Color development was initiated by addition of 100 μl K-Blue per well (15 min incubation, room temp) and terminated by addition of 100 μl Red Stop Buffer per well. […] Results were calculated as % inhibition of total binding (i.e., VLA-4+VCAM-1 in the absence of test compound).

T1 sequence (P13612 34-1032): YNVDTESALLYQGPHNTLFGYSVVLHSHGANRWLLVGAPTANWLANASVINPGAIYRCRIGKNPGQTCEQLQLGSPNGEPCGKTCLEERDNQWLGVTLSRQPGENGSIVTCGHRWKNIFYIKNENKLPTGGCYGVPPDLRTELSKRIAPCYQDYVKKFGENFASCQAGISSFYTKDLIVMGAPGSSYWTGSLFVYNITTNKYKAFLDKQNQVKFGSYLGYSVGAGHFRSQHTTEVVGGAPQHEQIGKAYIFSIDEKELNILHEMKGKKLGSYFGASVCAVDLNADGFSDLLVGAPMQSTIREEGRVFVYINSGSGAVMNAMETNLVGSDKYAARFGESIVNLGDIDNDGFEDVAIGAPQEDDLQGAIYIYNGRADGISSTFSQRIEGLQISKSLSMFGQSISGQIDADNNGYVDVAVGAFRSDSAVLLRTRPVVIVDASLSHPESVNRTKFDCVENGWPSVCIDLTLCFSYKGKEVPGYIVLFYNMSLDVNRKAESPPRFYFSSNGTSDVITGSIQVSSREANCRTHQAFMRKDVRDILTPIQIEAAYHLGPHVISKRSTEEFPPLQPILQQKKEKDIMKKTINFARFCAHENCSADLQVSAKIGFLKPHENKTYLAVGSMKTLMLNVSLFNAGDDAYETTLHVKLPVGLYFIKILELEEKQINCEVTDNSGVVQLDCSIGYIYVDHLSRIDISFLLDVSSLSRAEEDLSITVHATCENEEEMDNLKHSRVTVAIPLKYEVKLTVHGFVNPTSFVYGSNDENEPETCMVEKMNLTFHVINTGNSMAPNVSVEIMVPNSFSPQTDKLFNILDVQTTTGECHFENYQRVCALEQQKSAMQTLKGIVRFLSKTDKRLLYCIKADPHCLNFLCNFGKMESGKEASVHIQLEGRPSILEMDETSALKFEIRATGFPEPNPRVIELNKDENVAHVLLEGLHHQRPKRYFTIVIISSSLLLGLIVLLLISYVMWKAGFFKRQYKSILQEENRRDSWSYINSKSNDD
T1 sequence (P05556 21-798): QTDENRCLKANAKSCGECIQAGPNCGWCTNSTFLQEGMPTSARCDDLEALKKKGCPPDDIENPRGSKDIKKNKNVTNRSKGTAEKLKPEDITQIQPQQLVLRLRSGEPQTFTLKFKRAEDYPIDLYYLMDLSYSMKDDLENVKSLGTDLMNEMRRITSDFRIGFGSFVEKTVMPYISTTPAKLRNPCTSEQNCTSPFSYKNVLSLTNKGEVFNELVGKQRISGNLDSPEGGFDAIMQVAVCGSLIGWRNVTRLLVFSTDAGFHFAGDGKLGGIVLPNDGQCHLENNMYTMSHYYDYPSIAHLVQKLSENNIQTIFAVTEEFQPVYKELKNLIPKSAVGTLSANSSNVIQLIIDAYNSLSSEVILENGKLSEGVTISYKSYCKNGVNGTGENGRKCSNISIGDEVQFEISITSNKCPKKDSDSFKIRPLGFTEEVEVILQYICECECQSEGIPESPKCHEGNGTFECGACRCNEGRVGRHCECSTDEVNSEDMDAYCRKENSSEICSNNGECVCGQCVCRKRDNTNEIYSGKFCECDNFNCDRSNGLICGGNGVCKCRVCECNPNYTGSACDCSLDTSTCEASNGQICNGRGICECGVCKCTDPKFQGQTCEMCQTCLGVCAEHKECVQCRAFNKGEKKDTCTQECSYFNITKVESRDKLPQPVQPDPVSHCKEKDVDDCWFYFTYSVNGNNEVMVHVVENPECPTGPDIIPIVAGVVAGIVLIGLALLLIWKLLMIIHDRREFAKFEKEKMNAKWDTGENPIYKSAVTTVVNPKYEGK

| Structure (SMILES) | inhibition at 0.01 µM | inhibition at 0.1 µM |
| --- | --- | --- |
| CC1(C(=O)N[C@@H](Cc2ccc(NC(=O)c3ccnc4ccccc34)cc2)C(=O)O)CCCCC1 [Example 70] | 49% | 86% |
| O=C(Nc1ccc(C[C@H](NC(=O)C23CC4CC(CC(C4)C2)C3)C(=O)O)cc1)c1ccnc2ccccc12 [Example 65] | 72% | 92% |
| O=C(Nc1ccc(C[C@H](NC(=O)C2(c3ccccc3)CCCCC2)C(=O)O)cc1)c1ccnc2ccccc12 [Example 77] | 67% | 93% |
| Cc1ccc(C2(C(=O)N[C@@H](Cc3ccc(NC(=O)c4ccnc5ccccc45)cc3)C(=O)O)CCCC2)cc1 [Example 78] | 63% | 93% |

Same assay, conditions: IC50 nM, Ramos cell-derived VLA-4, recombinant human VCAM-1 coated plates, 2 hr at 37° C.

| Structure (SMILES) | IC50 |
| --- | --- |
| O=C(Nc1ccc(C[C@H](NC(=O)C2(Cc3ccccc3Cl)CCCC2)C(=O)O)cc1)c1c(Cl)cccc1Cl [Example 51] | 1.6 nM |

Same assay, conditions: Ramos cell-derived VLA-4, recombinant human VCAM-1 coated plates, 2 hr at 37° C.; read-out: IC50

| Structure (SMILES) | pIC50 |
| --- | --- |
| COc1ccc(CC2(C(=O)N[C@@H](Cc3ccc(NC(=O)N4CCC(C#N)(c5ccccc5)CC4)cc3)C(=O)O)CCCC2)cc1 [Example 119] | 8.30 |
| CCOC(=O)c1ccccc1NC(=O)Nc1ccc(C[C@H](NC(=O)C2(C)CC2(Cl)Cl)C(=O)O)cc1 (stereo partly drawn) [Example 121] | 7.18 |
| CCCCC(C)(CC)C(=O)N[C@@H](Cc1ccc(NC(=O)[C@H](Cc2ccc(O)cc2)NC(C)=O)cc1)C(=O)O (stereo partly drawn) [Example 91] | 7.40 |
| CCCCC(C)(CC)C(=O)NC(Cc1ccc(NC(=O)CCN2CCCCC2)cc1)C(=O)O (stereo not drawn) [Example 87] | 8.82 |
| CC1(C(=O)N[C@@H](Cc2ccc(NC(=O)c3ccnc4ccccc34)cc2)C(=O)O)CCCCC1 [Example 70] | 8.15 |
| COCCC1(C(=O)NC(Cc2ccc(N3C(=O)C(CC(C)C)N(C(C)=O)C3c3ccc(Cl)cc3)cc2)C(=O)O)CCCC1 (single isomer, unassigned) [Example 139] | 7.42 |
| COc1ccc(CC2(C(=O)N[C@@H](Cc3ccc(NC(=O)c4cc([N+](=O)[O-])ccc4C)cc3)C(=O)O)CCCC2)cc1 [Example 97] | 9.30 |
| Cc1ccc([N+](=O)[O-])cc1C(=O)Nc1ccc(C[C@H](NC(=O)C2(Cc3ccccc3)CCCC2)C(=O)O)cc1 [Example 36, 4-[[(2-Methyl-5-nitrophenyl)carbonyl]amino]-N-[[1-(phenylmethyl)cyclopentyl]carbonyl]-L-phenylalanine] | 8.34 |
| COCCC1(C(=O)NC(Cc2ccc(N3C(=O)C(CC(C)C)N(C(C)=O)C3c3ccc(OC)cc3)cc2)C(=O)O)CCCC1 (single isomer, unassigned) [Example 137] | 7.72 |
| COc1ccc(C2(C(=O)N[C@@H](Cc3ccc(NC(=O)c4cc([N+](=O)[O-])ccc4C)cc3)C(=O)O)CCCCC2)cc1 [Example 105] | 9.08 |
| COc1ccc(C2(C(=O)NC(Cc3ccc(NC(=O)C(Cc4ccc(O)cc4)NC(C)=O)cc3)C(=O)O)CCCCC2)cc1 (stereo not drawn) [Example 106] | 7.87 |
| COc1ccc(C2(C(=O)N[C@@H](Cc3ccc(N4C(=O)[C@H](CC(C)C)N(C)C4=O)cc3)C(=O)O)CCCCC2)cc1 [Example 144, N-[[1-(4-methoxyphenyl)cyclohexyl]carbonyl]-4-[(4S)-3-methyl-4-(2-methylpropyl)-2,5-dioxo-1-imidazolidinyl]-L-phenylalanine] | 9.12 |
| O=C(NCCC1(C(=O)N[C@@H](Cc2ccc(NC(=O)c3c(Cl)cccc3Cl)cc2)C(=O)O)CCCC1)c1ccc2c(c1)OCO2 [Example 165] | 7.96 |
| COc1ccc(C2(C(=O)NC(Cc3ccc(NC(=O)CCN4CCCCC4)cc3)C(=O)O)CCCC2)cc1 (stereo not drawn) [Example 93] | 8.72 |
| COc1ccc(CC2(C(=O)NC(Cc3ccc(NC(=O)c4c(Cl)cccc4Cl)cc3)C(=O)O)CCCC2)cc1OC (stereo not drawn) [Example 54] | 9.09 |
| CCCCC(C)(CC)C(=O)N[C@@H](Cc1ccc(NC(=O)N2CCC(C#N)(c3ccccc3)CC2)cc1)C(=O)O (stereo partly drawn) [Example 120] | 8.54 |
| O=C(Nc1ccc(C[C@H](NC(=O)C23CC4CC(CC(C4)C2)C3)C(=O)O)cc1)c1ccnc2ccccc12 [Example 65] | 8.62 |
| COc1ccc(C2(C(=O)N[C@@H](Cc3ccc(N4C(=O)[C@H](C)N(C)C4=O)cc3)C(=O)O)CCCCC2)cc1 [Example 143] | 9.07 |
| COCCC1(C(=O)NC(Cc2ccc(N3C(=O)C(CC(C)C)N(C(C)=O)C3c3ccc(OC)cc3)cc2)C(=O)O)CCCC1 (single isomer, unassigned) [Example 130] | 8.18 |
| O=C(Nc1ccc(C[C@H](NC(=O)C2(c3ccccc3)CCCCC2)C(=O)O)cc1)c1ccnc2ccccc12 [Example 77] | 8.25 |
| COc1ccc(CC2(C(=O)N[C@@H](Cc3ccc(NC(=O)c4ccnc5ccccc45)cc3)C(=O)O)CCCC2)cc1 [Example 40, N-[[1-[(4-Methoxyphenyl)methyl]cyclopentyl]carbonyl]-4-[(4-quinolinylcarbonyl)amino]-L-phenylalanine] | 8.68 |
| CC(=O)N[C@@H](Cc1ccc(O)cc1)C(=O)Nc1ccc(C[C@H](NC(=O)C2(C)CC2(Cl)Cl)C(=O)O)cc1 (stereo partly drawn) [Example 101] | 7.74 |
| COc1ccc(CC2(C(=O)N[C@@H](Cc3ccc(N4C(=O)c5ccccc5C4=O)cc3)C(=O)O)CCCC2)cc1 [Example 110] | 8.09 |
| COc1ccc(CC2(C(=O)N[C@@H](Cc3ccc(NC(=O)c4cc([N+](=O)[O-])ccc4C)cc3)C(=O)O)CCCC2)cc1 [Example 42, N-[[1-[(4-Methoxyphenyl)methyl]cyclopentyl]carbonyl]-4-[[(2-methyl-5-nitrophenyl)carbonyl]amino]-L-phenylalanine] | 9.21 |
| COc1ccc(C2(C(=O)NC(Cc3ccc(NC(=O)c4c(Cl)cccc4Cl)cc3)C(=O)O)CCCCC2)cc1 (stereo not drawn) [Example 103] | 9.15 |
| Cc1ccc(C2(C(=O)N[C@@H](Cc3ccc(NC(=O)c4ccnc5ccccc45)cc3)C(=O)O)CCCC2)cc1 [Example 78] | 8.05 |
| COc1ccc(CC2(C(=O)N[C@@H](Cc3ccc(NC(=O)[C@H](Cc4ccc(O)cc4)NC(C)=O)cc3)C(=O)O)CCCC2)cc1 [Example 98] | 7.93 |
| CC1(C(=O)N[C@@H](Cc2ccc(NC(=O)c3ccnc4ccccc34)cc2)C(=O)O)CC1(Cl)Cl (stereo partly drawn) [Example 64, N-[(2,2-Dichloro-1-methylcyclopropyl)carbonyl]-4-[(4-quinolinylcarbonyl)amino]-L-phenylalanine] | 8.52 |
| COCCC1(C(=O)NC(Cc2ccc(N3C(=O)C(CC(C)C)N(C(C)=O)C3c3ccc(Cl)cc3)cc2)C(=O)O)CCCC1 (single isomer, unassigned) [Example 133] | 7.22 |
| COCCC1(C(=O)NC(Cc2ccc(N3C(=O)C(CC(C)C)N(C(C)=O)C3c3ccc(Cl)cc3)cc2)C(=O)O)CCCC1 (single isomer, unassigned) [Example 138] | 9.38 |

Target: T2, cell-surface VLA-4 (α4β1 integrin) on Ramos cells binding to immobilized VCAM-1 (Homo sapiens, UniProt P05556+P13612)
T2 construct: Ramos cells bearing cell-surface VLA-4; endogenous in cells; host or cells: Ramos cells (VLA-4); VCAM-1 purified from CHO cell culture media
T2 sequence (P13612 34-1032): as the sequence (P13612 34-1032) above
T2 sequence (P05556 21-798): as the sequence (P05556 21-798) above
Assay: Ramos (VLA-4)/VCAM-1 Cell-Based Screening Assay (cell adhesion)
Settings: Calcein-AM labeled Ramos cells, VCAM-1 coated plates, 45 min at room temperature; read-out: IC50 in Ramos Cell Based Assay
From the text: Calcein-AM was purchased from Molecular Probes Inc.
VLA-4 (α4β1 integrin) antagonist activity, defined as ability to compete with cell-surface VLA-4 for binding to immobilized VCAM-1, was quantitated using a Ramos-VCAM-1 cell adhesion assay. Ramos cells bearing cell-surface VLA-4, were labeled with a fluorescent dye (Calcein-AM) and allowed to bind VCAM-1 in the presence or absence of test compounds.
Initially, this entailed coating 96 well plates (Nunc Maxisorp) with recombinant human VCAM-1 (100 ng in 100 μl PBS), sealing each plate and allowing the plates to stand at 4° C for Å18 hr. The VCAM-coated plates were subsequently washed twice with 0.05% Tween-20 in PBS, and then blocked for 1hr (room temperature) with 200 μl of Blocking Buffer (1% BSA/0.02% thimerosal) to reduce non-specific binding. Following the incubation with Blocking Buffer, plates were inverted, blotted and the remaining buffer aspirated. Each plate was then washed with 300 μl PBS, inverted and the remaining PBS aspirated.
Test compounds were dissolved in 100% DMSO and then diluted 1:25 in VCAM Cell Adhesion Assay Buffer (4 mM CaCl2, 4 mM MgCl2 in 50 mM TRIS-HCl, pH 7.5) (final DMSO=4%). […] 100 μl/well of each dilution was added to the VCAM-coated plates, followed by 100 μl of Ramos cells (200,000 cells/well in 1% BSA/PBS). […] Plates were inverted to remove non-adherent cells, blotted and 300 μl/well PBS added. Plates were again inverted, blotted and the remaining buffer gently aspirated. 100 μl Lysis Buffer (0.1% SDS in 50 mM TRIS-HCl, pH 8.5) was added to each well and agitated for 2 min on a rotary shaking platform.

| Structure (SMILES) | pIC50 |
| --- | --- |
| COC(=O)NC(=O)NCCC1(C(=O)N[C@@H](Cc2ccc(NC(=O)c3c(Cl)cccc3Cl)cc2)C(=O)O)CCCC1 [Example 189] | 6.89 |

Same assay, conditions: Conc. 10 nM; Ramos cell adhesion to VCAM-1

| Structure (SMILES) | inhibition at 0.01 µM |
| --- | --- |
| CC(=O)NCCC1(C(=O)NC(Cc2ccc(N3C(=O)C(Cc4ccccc4)N(C(C)=O)C3c3ccc(Cl)cc3)cc2)C(=O)O)CCCC1 (single isomer, unassigned) [Example 319] | 68% |

Same assay, conditions: IC50 in Ramos Cell Based Assay (nM), Calcein-AM labeled Ramos cells, VCAM-1 coated plates, 45 min at room temperature

| Structure (SMILES) | IC50 |
| --- | --- |
| CC(C)(C)C(=O)NCCC1(C(=O)N[C@@H](Cc2ccc(NC(=O)c3c(Cl)cccc3Cl)cc2)C(=O)O)CCCC1 [Example 156, 4-[[(2,6-dichlorophenyl)carbonyl]amino]-N-[[1-[2-[[N-(1,1-dimethylethyl)carbonyl]amino]ethyl]cyclopentyl]carbonyl]-L-phenylalanine] | 28 nM |
